Experimental data taken from patent US10368545B2, “Substituted 2-thioimidazolylcarboxamides as pesticides” (BAYER CROPSCIENCE AKTIENGESELLSCHAFT, priority 2015, dated 2019).
Values joined by “and” are separate entries in the source; they are usually repeats but may differ in a detail not shown here. Equal values may be shown once. Read-outs that look alike come from different tables or passages of the source.

Assays:
[1] = log P by HPLC on reversed-phase C18 columns (OECD Guideline 117); assay type: physicochemical; settings: for chromatographic logP: reversed-phase C18 HPLC column; for logP[a]: method [a]; for logP[b]: method [b]; for log P[a]: acidic range; for log P[n]: neutral range
Protocol: The log P values were determined in accordance with OECD Guideline 117 (EC Directive 92/69/EEC) by HPLC (high-performance liquid chromatography) using reversed-phase (RP) columns (C18), by the following methods:
[a] The LC-MS determination in the acidic range was carried out at pH 2.7 with 0.1% aqueous formic acid and acetonitrile (contains 0.1% formic acid) as mobile phases; linear gradient from 10% acetonitrile to 95% acetonitrile.
[b] LC-MS determination in the neutral range was carried out at pH 7.8 with 0.001 molar aqueous ammonium hydrogencarbonate solution and acetonitrile as mobile phases; linear gradient from 10% acetonitrile to 95% acetonitrile.

[2] = system: green peach aphid (Myzus persicae); experiment: Myzus persicae spray test (Chinese cabbage leaf discs); assay type: in vivo; settings: application rate 500 g/ha, after 5 or 6 days, Chinese cabbage leaf discs
Protocol: Myzus persicae—Spray Test
Solvent: 78 parts by weight of acetone • • 1.5 parts by weight of dimethylformamide
Emulsifier: alkylaryl polyglycol ether
To produce a suitable active compound preparation, 1 part by weight of active compound is dissolved using the stated parts by weight of solvent and made up with water containing an emulsifier concentration of 1000 ppm until the desired concentration is attained. To produce further test concentrations, the preparation is diluted with emulsifier-containing water.
Discs of Chinese cabbage leaves (Brassica pekinensis) infested by all stages of the green peach aphid (Myzus persicae) are sprayed with an active compound preparation of the desired concentration.
After 5 or 6 days, the efficacy in % is determined. 100% means that all the aphids were killed; 0% means that no aphids were killed.

[3] = pH 2.7, acidic range, pH 2.7, 0.1% aqueous formic acid / acetonitrile, read-out: log P[a]
[4] = pH 2.7, method [a], read-out: logP[a]
[5] = pH 7.8, method [b], read-out: logP[b]
[6] = pH 2.7, 0.1% aqueous formic acid / acetonitrile
[7] = pH 7.8, 0.001 molar aqueous ammonium hydrogencarbonate / acetonitrile

Compound	logP[a] [1]	logP[b] [1]	efficacy (aphids killed) [2]	also measured
CN(C(=O)c1cncn1Cc1ccccc1)c1cccnc1 [1-benzyl-N-methyl-N-(pyridin-3-yl)-1H-imidazole-5-carboxamide]				chromatographic logP [1, 3]: 0.85; chromatographic logP ([1]; pH 7.8, neutral range, pH 7.8, 0.001 molar aqueous ammonium hydrogencarbonate / acetonitrile, read-out: log P[n]): 1.4
CN(C(=O)c1c(Br)nc(Sc2ncccn2)n1C)c1cccnc1 [I-A-13]	1.25	1.31		
CN(C(=O)c1cnc(Sc2ccccc2[N+](=O)[O-])n1C)c1cccnc1 [I-A-16]	1.68	1.78	90%	
CN(C(=O)c1cnc(SC2CCCCC2)n1C)c1cccnc1 [I-A-17]	1.89	2.26		
CC(=O)CSc1ncc(C(=O)N(C)c2cccnc2)n1C [I-A-23]	0.67 and 0.71		90%	
CCOC(=O)CSc1ncc(C(=O)N(C)c2cccnc2)n1C [I-A-24]	1.20	1.34	90%	
COC(=O)CSc1ncc(C(=O)N(C)c2cccnc2)n1C [I-A-25]	0.88	1.09	90%	
CN(C(=O)c1cnc(SCC(=O)C(C)(C)C)n1C)c1cccnc1 [I-A-28]	1.53	1.78	90%	
CN(C(=O)c1cnc(SCC(=O)O)n1C)c1cccnc1 [I-A-29]	0.28	1.05		
CN(C(=O)c1cnc(SCC(=O)C2CC2)n1C)c1cccnc1 [I-A-31]	0.97	1.28	90%	
CN(C(=O)c1cnc(SCC(N)=O)n1C)c1cccnc1 [I-A-32]	0.11	0.50		
CNC(=O)CSc1ncc(C(=O)N(C)c2cccnc2)n1C [I-A-33]				chromatographic logP [1, 4]: 0.33; chromatographic logP [1, 5]: 0.62
CN(C)C(=O)CSc1ncc(C(=O)N(C)c2cccnc2)n1C [I-A-34]	0.59	0.81		
CCSc1ncc(C(=O)Nc2cccnc2)n1C [I-A-41]	0.71	1.54	90%	
CNC(=O)CS(=O)(=O)c1ncc(C(=O)N(C)c2cccnc2)n1C [I-A-42]	0.35	0.55		
CN(C(=O)c1cnc(Sc2ccc(C(C)(C)C)cc2)n1C)c1cccnc1 [I-A-63]	2.75	2.92		
CN(C)C(=O)c1ccccc1Sc1ncc(C(=O)N(C)c2cccnc2)n1C [I-A-67]	1.17	1.25	90%	
CN(C(=O)c1cnc(Sc2cccc([N+](=O)[O-])c2)n1C)c1cccnc1 [I-A-68]	1.71	1.77	100%	
COc1ccccc1Sc1ncc(C(=O)N(C)c2cccnc2)n1C [I-A-72]	1.59	1.74		
CN(C(=O)c1cnc(S(=O)(=O)c2cccc(Cl)c2)n1C)c1cccnc1 [I-A-73]	1.81	1.87	90%	

Compound	logP[a] [1]	logP[b] [1]	efficacy (aphids killed) [2]	also measured
CN(C(=O)c1cnc([S+]([O-])c2cccc(Cl)c2)n1C)c1cccnc1 (centres unmarked) [I-A-74]	1.45	1.55	90%	
CN(C(=O)c1cnc([S+]([O-])c2ccc(C(C)(C)C)cc2)n1C)c1cccnc1 (centres unmarked) [I-A-75]	2.14	2.19	90%	
CN(C(=O)c1cnc(S(=O)(=O)c2ccc(C(C)(C)C)cc2)n1C)c1cccnc1 [I-A-76]	2.53	2.55		
COc1ccc(S(=O)(=O)c2ncc(C(=O)N(C)c3cccnc3)n2C)cc1 [I-A-81]	1.53	1.58		
CN(C(=O)c1cnc(S(=O)(=O)c2ccc(F)cc2)n1C)c1ccc[n+]([O-])c1 [I-A-83]				chromatographic logP [1, 4]: 1.12; chromatographic logP [1, 5]: 1.23; pest or weed control at 500 g/ha ([2]; Myzus persicae, foliar, read-out: efficacy (aphids killed)): 90%
CN(C(=O)c1cnc(S(=O)(=O)c2ccccn2)n1C)c1cccnc1 [I-A-85]	1.01	1.10		
CN(C(=O)c1cnc(S(=O)(=O)c2ccccc2)n1C)c1cccnc1 [I-A-88]	1.37	1.47		
CN(C(=O)c1cnc(S(=O)(=O)c2ccc([N+](=O)[O-])cc2)n1C)c1cccnc1 [I-A-90]	1.58	1.68		
CN(C)C(=O)c1cccc([S+]([O-])c2ncc(C(=O)N(C)c3cccnc3)n2C)c1 (centres unmarked) [I-A-91]	0.76	0.96		
CN(C)C(=O)c1ccccc1S(=O)(=O)c1ncc(C(=O)N(C)c2cccnc2)n1C [I-A-92]	1.12	1.29		
CCN(C(=O)c1cnc(Sc2ncccn2)n1C)c1cccnc1 [I-A-98]	1.04	1.22	90%	
Cc1cnc(Sc2ncc(C(=O)N(C)c3cccnc3)n2C)nc1C [I-A-103]	1.23		100%	
CN(C(=O)c1cnc(Sc2ncccn2)n1Cc1ccccc1)c1cccnc1 [I-A-111, 1-benzyl-N-methyl-N-(pyridin-3-yl)-2-(pyrimidin-2-ylsulphanyl)-1H-imidazole-5-carboxamide]				chromatographic logP [1, 4]: 1.73; chromatographic logP [1, 5]: 1.78
CN(C(=O)c1cnc(SCc2cncn2C)n1C)c1cccnc1 [I-A-114]	0.20	0.85		
CN(C(=O)c1cnc(SCc2ccn(C)n2)n1C)c1cccnc1 [I-A-115]	0.76	1.12		
CN(C(=O)c1cnc(SCc2nccn2C)n1C)c1cccnc1 [I-A-118]		0.89		
CN(C(=O)c1cnc(SCc2cccnc2)n1C)c1cccnc1 [I-A-119]	0.39	1.15	90%	
CN(C(=O)c1cnc(SCc2ccco2)n1C)c1cccnc1 [I-A-120]	1.34	1.55	90%	
CN(C(=O)c1cnc(SCc2ccc(Cl)c(Cl)c2)n1C)c1cccnc1 [I-A-121]	2.51	2.62		
CN(C(=O)c1cnc(SCc2c(F)cccc2F)n1C)c1cccnc1 [I-A-123]	1.69	1.92	90%	

Compound	logP[a] [1]	logP[b] [1]	efficacy (aphids killed) [2]	also measured
COc1cccc(F)c1CSc1ncc(C(=O)N(C)c2cccnc2)n1C [I-A-124]	1.72	2.03	90%	
CN(C(=O)c1cnc(SCc2c(F)cccc2Cl)n1C)c1cccnc1 [I-A-127]	1.89	2.09	90%	
Cc1cccc(C)c1CSc1ncc(C(=O)N(C)c2cccnc2)n1C [I-A-129]	2.32	2.44		
Cc1cc([N+](=O)[O-])nn1CSc1ncc(C(=O)N(C)c2cccnc2)n1C [I-A-131]	1.28	1.40	90%	
CN(C(=O)c1cnc(SCC(=O)NC2CC2)n1C)c1cccnc1 [I-A-132]	0.59	0.94	90%	
COC(=O)C(C)(C)NC(=O)CSc1ncc(C(=O)N(C)c2cccnc2)n1C [I-A-133]	1.06	1.22		
COC(=O)c1cnc(Sc2ncc(C(=O)N(C)c3cccnc3)n2C)n1C [I-A-143]	1.12	1.27		
Cc1cc(C)nc(Sc2ncc(C(=O)O)n2C)n1 [IV-1]				log P[a] [1, 6]: 0.81
Cn1c(C(=O)O)cnc1SCC1CC1 [IV-2]				log P[a] [1, 6]: 0.62; log P[n] [1, 7]: −0.18
Cn1c(C(=O)O)cnc1Br [IX-1, 1-methyl-2-bromoimidazole-5-carboxylic acid]				chromatographic logP [1, 3]: 0.31
COC(=O)c1cnc(Sc2nc(C)cc(C)n2)n1C [VIII-1]				log P[a] [1, 6]: 1.78; log P[n] [1, 7]: 1.80
COC(=O)c1cnc(SCC2CC2)n1C [VIII-2]				log P[a] [1, 6]: 2.06; log P[n] [1, 7]: 2.26
CN(C(=O)c1cnc(Br)n1C)c1cccnc1 [XI-1]				log P[a] [1, 6]: 0.65; log P[n] [1, 7]: 0.93
Cn1cc(C(=O)O)nc1Br [XIX-1, 2-bromo-1-methyl-1H-imidazole-4-carboxylic acid]				chromatographic logP [1, 3]: 0
CN(C(=O)c1cncn1C)c1cccnc1 [XV-1]				log P[n] [1, 7]: 0.42
Cn1cnc(C(=O)OC(C)(C)C)c1 [XVII-1, tert-butyl 1-methyl-1H-imidazole-4-carboxylate]				chromatographic logP [1, 3]: 0.74
Cn1cc(C(=O)OC(C)(C)C)nc1Br [XVIII-1, tert-butyl 2-bromo-1-methyl-1H-imidazole-4-carboxylate]				chromatographic logP [1, 3]: 1.27
CN(C(=O)c1cn(C)c(Br)n1)c1cccnc1 [XXI-1]				log P[n] [1, 7]: 0.76
